Laboratory results taken from patent US7132437B2, “Renal-selective biphenylalkyl 1H-substituted-1,2,4-triazole angiotensin II antagonists for treatment of hypertension” (G.D. Searle, priority 1990, dated 2006).

How the values were obtained:
[1] = system: spontaneously hypertensive rats (SHR); assay: Assay D: In Vivo Effects of Chronic Infusion of Conjugate (mean arterial pressure, heart rate); set-up: species or system rat
Method: Assay D: In Vivo Effects of Chronic Infusion of Conjugate of the Invention
(§1) This in vivo experiment was conducted to characterize the effects of the Example 79 conjugate on spontaneously hypertensive rats (SHR) by acute administration i.v. and by chronic administration i.v. The […] compound or saline vehicle was infused continuously for four days in SHR. Mean arterial pressure was measured (Gould Chart Recorder, model 3800; Statham P23 Db pressure transducer) via an indwelling femoral artery catheter between 10:00 a.m. and 2:00 P.M. each day. The Example 79 conjugate (10 mg/hr) or saline was infused via a jugular vein catheter with a Harvard infusion pump. […] A test was conducted to determine whether the Example 79 conjugate would antagonize non-renal, vascular angiotensin II receptors. In this test AII was administered by bolus injection (100 ng/kg) to the SHR rats (described above) on the control day and on days 1, 3 and 4 during conjugate infusion.

[2] = target: T1, non-renal, vascular angiotensin II receptors (Rattus norvegicus, UniProt P25095); assay: Assay D: AII pressor response during conjugate infusion (systemic AII antagonism); format: in vivo; settings: SHR; for AII Pressor Response: 10 mg/hr infusion, AII bolus 100 ng/kg, control day 31 ± 4
T1 construct: from tissue; host or cells: whole animal: spontaneously hypertensive rat (SHR), systemic vasculature
T1 sequence (P25095 1-359): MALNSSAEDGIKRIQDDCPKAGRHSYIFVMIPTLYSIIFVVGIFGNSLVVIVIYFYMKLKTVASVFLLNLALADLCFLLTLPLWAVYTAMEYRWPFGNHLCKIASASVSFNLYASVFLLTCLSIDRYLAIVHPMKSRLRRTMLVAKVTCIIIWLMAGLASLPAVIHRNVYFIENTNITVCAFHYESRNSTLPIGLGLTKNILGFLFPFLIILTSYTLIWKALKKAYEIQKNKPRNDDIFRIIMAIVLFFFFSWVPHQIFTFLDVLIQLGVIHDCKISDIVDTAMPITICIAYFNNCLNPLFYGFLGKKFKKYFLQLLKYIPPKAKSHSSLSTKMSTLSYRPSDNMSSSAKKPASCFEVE
Method: as §1

[3] = target: T2, smooth muscle angiotensin II receptor; assay: Assay A: Angiotensin II Binding Activity; settings: rat uterine membrane preparation, displacement of 125I-AII
T2 construct: Rat uterine membranes were prepared from fresh tissue
Method: Assay A: Angiotensin II Binding Activity
Compounds of Formula I were tested for ability to bind to the smooth muscle angiotensin II receptor using a rat uterine membrane preparation. […] Other chemicals were obtained from Sigma Chemical Co. This assay was carried out according to the method of Douglas et al [Endocrinology, 106, 120–124 (1980)]. Rat uterine membranes were prepared from fresh tissue. All procedures were carried out at 4° C. Uteri were stripped of fat and homogenized in phosphate-buffered saline at pH 7.4 containing 5 mM EDTA. The homogenate was centrifuged at 1500×g for 20 min., and the supernatant was recentrifuged at 100,000×g for 60 min. The pellet was resuspended in buffer consisting of 2 mM EDTA and 50 mM Tris-HCl (pH 7.5) to a final protein concentration of 4 mg/ml. […] The reaction was initiated by the addition of membrane protein and the mixture was incubated at 25° C. for 60 min. The incubation was terminated with ice-cold 50 mM Tris-HCl (pH 7.5) and the mixture was filtered to separate membrane-bound labelled peptide from the free ligand. The incubation tube and filter were washed with ice-cold buffer. Filters were assayed for radioactivity in a Micromedic gamma counter. Nonspecific binding was defined as binding in the presence of 10 μM of unlabelled AII. Specific binding was calculated as total binding minus nonspecific binding. […] Binding data were analyzed by a nonlinear least-squares curve fitting program.

rabbit aortic rings = assay: Assay B: In Vitro Vascular Smooth Muscle Response for AII; format: cell-based; settings: antagonist at 10^-5 M, two values per cell = aorta rings from two rabbits
Method: Assay B: In Vitro Vascular Smooth Muscle-Response for ATT
Compounds of Formula I were tested for antagonist activity in rabbit aortic rings. Male New Zealand white rabbits (2–2.5 kg) were sacrificed using an overdose of pentobarbital and exsanguinated via the carotid arteries. The thoracic aorta was removed, cleaned of adherent fat and connective tissue and then cut into 3-mm ring segments. The endothelium was removed from the rings by gently sliding a rolled-up piece of filter paper into the vessel lumen. The rings were then mounted in a water-jacketed tissue bath, maintained at 37° C., between moveable and fixed ends of a stainless steel wire with the moveable end attached to an FT03 Grass transducer coupled to a Model 7D Grass Polygraph for recording isometric force responses. The bath was filled with 20 ml of oxygenated (95% oxygen/5% carbon dioxide) Krebs solution of the following composition […]: 130 NaCl, 15 NaHCO3, 15 KCl, 1.2 NaH2PO4, 1.2 MgSO4, 2.5 CaCl2, and 11.4 glucose. The preparations were equilibrated for one hour before approximately one gram of passive tension was placed on the rings. Angiotensin II concentration-response curves were then recorded (3×10^−10 to 1×10–5 M). Each concentration of AII was allowed to elicit its maximal contraction, and then AII was washed out repeatedly for 30 minutes before rechallenging with a higher concentration of AII. Aorta rings were exposed to the test antagonist at 10^−5 M for 5 minutes before challenging with AII. Adjacent segments of the same aorta ring were used for all concentration-response curves in the presence or absence of the test antagonist. The effectiveness of the test compound was expressed in terms of pA2 values and were calculated according to H. O. Schild [Br. J. Pharmacol. Chemother., 2, 189–206 (1947)]. […] Each test antagonist was evaluated in aorta rings from two rabbits.

## CCCCc1nc(CCCC)n(Cc2ccc(-c3ccccc3C(=O)NNC(=O)CCC(NC(C)=O)C(=O)O)cc2)n1 (stereo not shown) [Ex. #18 Conjugate, N-acetylglutamic acid, 5-[[4′-[(3,5-dibutyl-1H-1,2,4-triazol-1-yl)methyl][1,1′-biphenyl]-2-yl]]carbonylhydrazide]
[1]; 10 mg/hr i.v. infusion, day 1, control day 183 ± 5, ± SD
  MAP (mean arterial pressure): 159 ± 7 mm Hg
[1]; 10 mg/hr i.v. infusion, day 1, control day 352 ± 9, ± SD
  Heart Rate: 395 ± 21 Beats/min.
[1]; 10 mg/hr i.v. infusion, day 2, control day 183 ± 5
  MAP (mean arterial pressure): 155 ± 4 mm Hg
[1]; 10 mg/hr i.v. infusion, day 2, control day 352 ± 9
  Heart Rate: 352 ± 12 Beats/min.
[1]; 10 mg/hr i.v. infusion, day 3, control day 183 ± 5
  MAP (mean arterial pressure): 154 ± 6 mm Hg
[1]; 10 mg/hr i.v. infusion, day 3, control day 352 ± 9
  Heart Rate: 344 ± 22 Beats/min.
[1]; 10 mg/hr i.v. infusion, day 4, control day 183 ± 5
  MAP (mean arterial pressure): 166 ± 9 mm Hg
[1]; 10 mg/hr i.v. infusion, day 4, control day 352 ± 9
  Heart Rate: 374 ± 20 Beats/min.
[2]; day 1, ± SD
  AII Pressor Response: 30 ± 6
[2]; day 3
  AII Pressor Response: 29 ± 5
[2]; day 4
  AII Pressor Response: 25 ± 3

## CCCCc1nc(CCc2ccccc2)nn1Cc1ccc(-c2ccccc2-c2nnn[nH]2)cc1 (single isomer, unassigned) [Example 26]
[3]
  IC50: 3.2 nM
Rabbit aortic rings
  Assay B pA2: 9.66
other
  melting point: 156 to 157.2 °C

## CCCCc1nc(-c2ccccc2)n(Cc2ccc(-c3ccccc3-c3nnn[nH]3)cc2)n1 (single isomer, unassigned) [Example 22, 5-[4′-[(3-butyl-5-phenyl-1H-1,2,4-triazol-1-yl)methyl](1,1′-biphenyl)-2-yl]-1H-tetrazole]
[3]
  IC50: 460 nM
Rabbit aortic rings
  Assay B pA2: 6.46
other
  melting point: 205 °C (dec.)

## CCCCCCCCc1nc(CCCC)nn1Cc1ccc(-c2ccccc2-c2nnn[nH]2)cc1 (single isomer, unassigned) [Example 28, 5-[4′-[(3-butyl-5-octyl-1H-1,2,4-triazol-1-yl)methyl][1,1′-biphenyl]-2-yl]-1H-tetrazole]
[3]
  IC50: 570 nM
other
  melting point: 136.5 to 138 °C

## CCCCc1nc(CCCC)n(Cc2ccc(-c3ccccc3C(=O)NNC(=O)CCC(NC(C)=O)C(=O)O)cc2)n1 (stereo not shown) [Example 79 conjugate, N-acetylglutamic acid, 5-[[4′-[(3,5-dibutyl-1H-1,2,4-triazol-1-yl)methyl][1,1′-biphenyl]-2-yl]]carbonylhydrazide]
[1]; 10 mg/hr infused for four days
  mean arterial pressure compared to saline vehicle control: lowered mean arterial pressure
[1]; day 1 of conjugate infusion
  tachycardia: Tachycardia was observed on day 1
[1]; days 2 to 4 of conjugate infusion
  Heart Rate: heart rate was returned to control level during the next three days
[2]; AII bolus 100 ng/kg on control day and days 1, 3 and 4 of infusion
  systemic angiotensin II receptor antagonism: No evidence for systemic angiotensin II receptor antagonism was observed

## CCCCc1nc(C(OC)OC)n(Cc2ccc(-c3ccccc3-c3nnn[nH]3)cc2)n1 (single isomer, unassigned) [Example 23, 5-[4′-[[3-butyl-5-(dimethoxymethyl)-1H-1,2,4-triazol-1-yl]methyl][1,1′-biphenyl]-2-yl]-1H-tetrazole]
[3]
  IC50: 430 nM
other
  melting point: 152.5 to 153.5 °C
